Measured values published in patent US12251387B2, “Substituted quinoxalines and benzo[c][1,2,5]oxadiazoles as DNA-PK inhibitors” (Vertex Pharmaceuticals Incorporated, priority 2013, dated 2025).

The molecules below were run against DNA-PK (Homo sapiens, UniProt P78527) (assay: DNA-PK Inhibition Assay (standard radiometric kinase assay, 33P-ATP, peptide substrate)). Conditions: radiometric assay, approximately 6 nM DNA-PK, 100 μM ATP, 45 min; fit to competitive tight-binding inhibition; read-out: Ki for the inhibition of DNA-PK.
Type: biochemical
Outline: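 Radiometric transfer of 33P from ATP (100 μM) to peptide substrate (0.8 mg/mL) by about 6 nM DNA-PK with 10 μg/mL sheared dsDNA, pH 7.5 HEPES/MgCl2, 45 min, phosphoric acid quench, filter capture and scintillation counting. Ki fitted to a competitive tight-binding inhibition model.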

Ki, < 100 nM:
CC(C)c1cc(N[C@H]2CC[C@@H](Oc3cc(N4CCOCC4)cc4nccnc34)CC2)ncn1 [Compound 652]
Cc1nccc(N[C@H]2CC[C@@H](Oc3cc(N4CCO[C@H](CO)C4)cc4nccnc34)CC2)n1 [Compound 320]
Cc1ncn2ccnc(N[C@H]3CC[C@@H](Oc4cc(N5CCOCC5)cc5nccnc45)CC3)c12 [Compound 313]
CNC(=O)c1cc(N[C@H]2CC[C@@H](Oc3cc(N4CCOCC4)cc4nccnc34)CC2)ncn1 [Compound 360]
CNc1ncnc(N[C@H]2CC[C@@H](Oc3cc(N4CCOCC4)cc4nccnc34)CC2)c1F [Compound 469]
O=C(NCC1CCCCC1)N[C@H]1CC[C@@H](Oc2cc(N3CCOCC3)cc3nccnc23)CC1 [Compound 410]
CNC(=O)c1cc(N[C@H]2CC[C@@H](Oc3cc(N4CC5CC(C4)O5)cc4nccnc34)CC2)ncn1 [Compound 315]
CC(C)(O)c1ccc(N[C@H]2CC[C@@H](Oc3cc(N4CCOCC4)cc4nccnc34)CC2)nc1 [Compound 281]
COCc1cc(N[C@H]2CC[C@@H](Oc3cc(N4CCOCC4)cc4nccnc34)CC2)nc(C)n1 [Compound 616]
c1nc(N[C@H]2CC[C@@H](Oc3cc(N4CCOCC4)cc4nccnc34)CC2)cc(OC2CNC2)n1 [Compound 480]
c1cnc2c(O[C@H]3CC[C@@H](Nc4ncnc5[nH]cnc45)CC3)cc(N3CCOCC3)cc2n1 [Compound 516]
CN(C)CCOc1ncnc(N[C@H]2CC[C@@H](Oc3cc(N4CCOCC4)cc4nccnc34)CC2)c1F [Compound 362]
c1cnc2c(O[C@H]3CC[C@@H](Nc4ncc(C5CCNC5)cn4)CC3)cc(N3CCOCC3)cc2n1 (stereo partly drawn) [Compound 569]
CCOc1cc(N[C@H]2CC[C@@H](Oc3cc(N4CCOCC4)cc4nccnc34)CC2)ccn1 [Compound 324]
CN1CCc2cnc(N[C@H]3CC[C@@H](Oc4cc(N5CCOCC5)cc5nccnc45)CC3)nc2C1 [Compound 556]
Cc1cnc2c(O[C@H]3CC[C@@H](Nc4ncc(C5CCN(C)CC5)cn4)CC3)cc(N3CCOCC3)cc2n1 [Compound 543]
CCc1cc(N[C@H]2CC[C@@H](Oc3cc(N4CCOCC4)cc4nccnc34)CC2)nc(C)n1 [Compound 597]
CC1(C)CC(c2cnc(N[C@H]3CC[C@@H](Oc4cc(N5CCOCC5)cc5nccnc45)CC3)nc2)CC(C)(C)N1 [Compound 550]
COc1nc(Cl)nc(N[C@H]2CC[C@@H](Oc3cc(N4CCOCC4)cc4nccnc34)CC2)n1 [Compound 609]
[2H]C([2H])([2H])c1nccc(N[C@H]2CC[C@@H](Oc3cc(N4CCOCC4)cc4nccnc34)CC2)n1 [Compound 478]
COc1cnc(Cl)nc1N[C@H]1CC[C@@H](Oc2cc(N3CCOCC3)cc3nccnc23)CC1 [Compound 401]
c1cnc2c(O[C@H]3CC[C@@H](Nc4ncc(CCN5CCCCC5)cn4)CC3)cc(N3CCOCC3)cc2n1 [Compound 433]
c1cnc2c(O[C@H]3CC[C@@H](Nc4ncc(OCCCN5CCCCC5)cn4)CC3)cc(N3CCOCC3)cc2n1 [Compound 507]
CN1CCN(CCCOc2cnc(N[C@H]3CC[C@@H](Oc4cc(N5CCOCC5)cc5nccnc45)CC3)nc2)CC1 [Compound 508]
CN1CCN(c2nccc(N[C@H]3CC[C@@H](Oc4cc(N5CCOCC5)cc5nccnc45)CC3)n2)CC1 [Compound 535]
O=C(O)c1cc(N[C@H]2CC[C@@H](Oc3cc(N4CCOCC4)cc4nccnc34)CC2)ncn1 [Compound 653]
c1cnc(N[C@H]2C[C@@H](COc3cc(N4CCOCC4)cc4nccnc34)C2)nc1 [Compound 305]
OCCc1cnc(N[C@H]2CC[C@@H](Oc3cc(N4CCOCC4)cc4nccnc34)CC2)nc1 [Compound 481]
OCc1ccnc(N[C@H]2CC[C@@H](Oc3cc(N4CCOCC4)cc4nccnc34)CC2)n1 [Compound 457]
CCN(CC)C(=O)N[C@H]1CC[C@@H](Oc2cc(N3CCOCC3)cc3nccnc23)CC1 [Compound 413]
COCCOc1cc(N[C@H]2CC[C@@H](Oc3cc(N4CCOCC4)cc4nccnc34)CC2)ncn1 [Compound 539]
O=c1cc(N[C@H]2CC[C@@H](Oc3cc(N4CCOCC4)cc4nccnc34)CC2)cc[nH]1 [Compound 325]
Cc1cnc(N[C@H]2CC[C@@H](Oc3cc(N4CCOCC4)cc4nccnc34)CC2)nc1C [Compound 467]
Cc1nccc(N[C@H]2CC[C@@H](Oc3cc(C4=CCOC4)cc4nccnc34)CC2)n1 [Compound 289]
CN(C)C(=O)N[C@H]1CC[C@@H](Oc2cc(N3CCOCC3)cc3nccnc23)CC1 [Compound 411]
c1cc(N[C@H]2CC[C@@H](Oc3cc(N4CCOCC4)cc4nccnc34)CC2)c2c(c1)OCO2 [Compound 339]
c1cc(C2CCNCC2)nc(N[C@H]2CC[C@@H](Oc3cc(N4CCOCC4)cc4nccnc34)CC2)n1 [Compound 551]
CNc1nc(N[C@H]2CC[C@@H](Oc3cc(N4CCOCC4)cc4nccnc34)CC2)ncc1F [Compound 482]
CN1CCC(Nc2ncnc(N[C@H]3CC[C@@H](Oc4cc(N5CCOCC5)cc5nccnc45)CC3)c2F)C1 (stereo partly drawn) [Compound 381]
FC(F)(F)c1ccnc(N[C@H]2CC[C@@H](Oc3cc(N4CCOCC4)cc4nccnc34)CC2)c1 [Compound 589]
Cc1cc(N[C@H]2CC[C@@H](Oc3cc(N4CCOCC4)cc4nccnc34)CC2)n2ncnc2n1 [Compound 536]
Oc1nccc(N[C@H]2CC[C@@H](Oc3cc(N4CCOCC4)cc4nccnc34)CC2)n1 [Compound 280]
c1nc2c(c(N[C@H]3CC[C@@H](Oc4cc(N5CCOCC5)cc5nccnc45)CC3)n1)OCC2 [Compound 464]
Fc1nc(N[C@H]2CC[C@@H](Oc3cc(N4CCOCC4)cc4nccnc34)CC2)c2nc[nH]c2n1 [Compound 521]
CN1CCN(c2ccnc(N[C@H]3CC[C@@H](Oc4cc(N5CCOCC5)cc5nccnc45)CC3)n2)CC1 [Compound 547]
O=C(N[C@H]1CC[C@@H](Oc2cc(N3CCOCC3)cc3nccnc23)CC1)N1CCOCC1 [Compound 412]
Cc1nc(N[C@H]2CC[C@@H](Oc3cc(N4CCOCC4)cc4nccnc34)CC2)cc(C2CC2)n1 [Compound 636]
CN(C)Cc1cnc(N[C@H]2CC[C@@H](Oc3cc(N4CCOCC4)cc4nccnc34)CC2)nc1 [Compound 529]
